According to the supplement of paper PMC10307832:

Legend:
Test in all cases: relative viability (nuclei count vs DMSO), 5 days (fraction); higher = more cells survive
[1] = tested on: LCLC-103H
Summary of the method: (§1)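 The day after seeding in 1536-well plates, lung cancer cell lines were treated by pin tool with a single drug, or with a fixed anchor-drug dose together with five library-drug doses (not always all listed) in √10 steps. After 5 days, a combined fix-and-stain solution (final 0.05% Triton X-100, 1% formaldehyde, 1 ug/ml Hoechst) was added. Nuclei counted on 4× images gave relative viability as treated counts over vehicle counts, reported as the median of duplicate plates.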

[2] = tested on: LXF-289
Summary of the method: as §1

[3] = tested on: NCI-H1355
Summary of the method: as §1

[4] = tested on: NCI-H1563
Summary of the method: as §1

[5] = tested on: NCI-H1651
Summary of the method: as §1

[6] = tested on: NCI-H1755
Summary of the method: as §1

[7] = tested on: NCI-H1792
Summary of the method: as §1

[8] = tested on: NCI-H1915
Summary of the method: as §1

[9] = tested on: NCI-H2347
Summary of the method: as §1

[10] = tested on: NCI-H3122
Summary of the method: as §1

[11] = tested on: NCI-H322M
Summary of the method: as §1

[12] = tested on: NCI-H441
Summary of the method: as §1

[13] = tested on: NCI-H460
Summary of the method: as §1

[14] = tested on: NCI-H520
Summary of the method: as §1

[15] = tested on: NCI-H596
Summary of the method: as §1

[16] = tested on: NCI-H661
Summary of the method: as §1

[17] = tested on: NCI-H727
Summary of the method: as §1

[18] = tested on: PC-14
Summary of the method: as §1

[19] = tested on: RERF-LC-KJ
Summary of the method: as §1

[20] = tested on: SK-MES-1
Summary of the method: as §1

CC(=O)O[C@@]12CO[C@@H]1C[C@H](O)[C@@]1(C)C(=O)[C@H](O)C3=C(C)[C@@H](OC(=O)[C@H](O)[C@@H](NC(=O)OC(C)(C)C)c4ccccc4)C[C@@](O)([C@@H](OC(=O)c4ccccc4)[C@H]21)C3(C)C [Docetaxel] + CS(=O)(=O)N1CCN(Cc2cc3nc(-c4cccc5[nH]ncc45)nc(N4CCOCC4)c3s2)CC1 [Pictilisib] (partner 1 µM)
relative viability ([1]; first compound 0.0002 µM): 0.537
relative viability ([1]; first compound 0.000632 µM): 0.514
relative viability ([1]; first compound 0.002 µM): 0.612
relative viability ([1]; first compound 0.006325 µM): 0.455
relative viability ([1]; first compound 0.02 µM): 0.251
relative viability ([2]; first compound 0.0002 µM): 0.815
relative viability ([2]; first compound 0.000632 µM): 0.653
relative viability ([2]; first compound 0.002 µM): 0.212
relative viability ([2]; first compound 0.006325 µM): 0.114
relative viability ([2]; first compound 0.02 µM): 0.0576
relative viability ([3]; first compound 0.0002 µM): 0.479
relative viability ([3]; first compound 0.000632 µM): 0.426
relative viability ([3]; first compound 0.002 µM): 0.256
relative viability ([3]; first compound 0.006325 µM): 0.224
relative viability ([3]; first compound 0.02 µM): 0.179
relative viability ([4]; first compound 0.0002 µM): 0.662
relative viability ([4]; first compound 0.000632 µM): 0.683
relative viability ([4]; first compound 0.002 µM): 0.71
relative viability ([4]; first compound 0.006325 µM): 0.564
relative viability ([4]; first compound 0.02 µM): 0.506
relative viability ([5]; first compound 0.0002 µM): 0.477
relative viability ([5]; first compound 0.000632 µM): 0.443
relative viability ([5]; first compound 0.002 µM): 0.206
relative viability ([5]; first compound 0.006325 µM): 0.095
relative viability ([5]; first compound 0.02 µM): 0.0784
relative viability ([6]; first compound 0.0002 µM): 0.346
relative viability ([6]; first compound 0.000632 µM): 0.306
relative viability ([6]; first compound 0.002 µM): 0.264
relative viability ([6]; first compound 0.006325 µM): 0.249
relative viability ([6]; first compound 0.02 µM): 0.183
relative viability ([7]; first compound 0.0002 µM): 0.274
relative viability ([7]; first compound 0.000632 µM): 0.273
relative viability ([7]; first compound 0.002 µM): 0.178
relative viability ([7]; first compound 0.02 µM): 0.073
relative viability ([8]; first compound 0.0002 µM): 0.857
relative viability ([8]; first compound 0.000632 µM): 0.931
relative viability ([8]; first compound 0.002 µM): 0.275
relative viability ([8]; first compound 0.006325 µM): 0.257
relative viability ([8]; first compound 0.02 µM): 0.11
relative viability ([9]; first compound 0.0002 µM): 0.462
relative viability ([9]; first compound 0.000632 µM): 0.564
relative viability ([9]; first compound 0.002 µM): 0.696
relative viability ([9]; first compound 0.006325 µM): 0.647
relative viability ([9]; first compound 0.02 µM): 0.066
relative viability ([10]; first compound 0.0002 µM): 0.567
relative viability ([10]; first compound 0.000632 µM): 0.577
relative viability ([10]; first compound 0.002 µM): 0.396
relative viability ([10]; first compound 0.006325 µM): 0.217
relative viability ([10]; first compound 0.02 µM): 0.172
relative viability ([11]; first compound 0.0002 µM): 0.433
relative viability ([11]; first compound 0.000632 µM): 0.493
relative viability ([11]; first compound 0.002 µM): 0.492
relative viability ([11]; first compound 0.006325 µM): 0.381
relative viability ([11]; first compound 0.02 µM): 0.313
relative viability ([12]; first compound 0.0002 µM): 0.352
relative viability ([12]; first compound 0.000632 µM): 0.32
relative viability ([12]; first compound 0.002 µM): 0.198
relative viability ([12]; first compound 0.006325 µM): 0.177
relative viability ([12]; first compound 0.02 µM): 0.11
relative viability ([13]; first compound 0.0002 µM): 0.351
relative viability ([13]; first compound 0.000632 µM): 0.3
relative viability ([13]; first compound 0.002 µM): 0.144
relative viability ([13]; first compound 0.006325 µM): 0.0682
relative viability ([13]; first compound 0.02 µM): 0.0373
relative viability ([14]; first compound 0.0002 µM): 0.274
relative viability ([14]; first compound 0.000632 µM): 0.27
relative viability ([14]; first compound 0.002 µM): 0.239
relative viability ([14]; first compound 0.006325 µM): 0.231
relative viability ([14]; first compound 0.02 µM): 0.157
relative viability ([15]; first compound 0.0002 µM): 0.405
relative viability ([15]; first compound 0.000632 µM): 0.252
relative viability ([15]; first compound 0.002 µM): 0.452
relative viability ([15]; first compound 0.006325 µM): 0.297
relative viability ([15]; first compound 0.02 µM): 0.256
relative viability ([16]; first compound 0.0002 µM): 0.356
relative viability ([16]; first compound 0.000632 µM): 0.387
relative viability ([16]; first compound 0.002 µM): 0.341
relative viability ([16]; first compound 0.006325 µM): 0.296
relative viability ([16]; first compound 0.02 µM): 0.278
relative viability ([17]; first compound 0.0002 µM): 0.309
relative viability ([17]; first compound 0.000632 µM): 0.4
relative viability ([17]; first compound 0.002 µM): 0.255
relative viability ([17]; first compound 0.006325 µM): 0.213
relative viability ([17]; first compound 0.02 µM): 0.182
relative viability ([18]; first compound 0.0002 µM): 0.629
relative viability ([18]; first compound 0.000632 µM): 0.376
relative viability ([18]; first compound 0.002 µM): 0.0774
relative viability ([18]; first compound 0.006325 µM): 0.0423
relative viability ([18]; first compound 0.02 µM): 0.0293
relative viability ([19]; first compound 0.0002 µM): 0.525
relative viability ([19]; first compound 0.000632 µM): 0.408
relative viability ([19]; first compound 0.002 µM): 0.189
relative viability ([19]; first compound 0.006325 µM): 0.223
relative viability ([19]; first compound 0.02 µM): 0.104
relative viability ([20]; first compound 0.0002 µM): 0.303
relative viability ([20]; first compound 0.000632 µM): 0.34
relative viability ([20]; first compound 0.006325 µM): 0.206
relative viability ([20]; first compound 0.02 µM): 0.119
